US7442703B2, “Piperidine derivatives useful as CCR5 antagonists” (priority 2001, dated 2008)
Where a name gives a salt, the structure may show the parent alone. Read-outs that look alike come from different tables or passages of the source.

Legend:
[1] = test system: HIV-1 luciferase reporter virus in U87-CD4-CCR5 cells; experiment: HIV Replication (luciferase) assay; type: cell-based
Procedure: Luciferase Replication Assay:
Plasmids encoding the full length genome of HIV-1 pNL-4-Luc with the gp120 V-3 loop replaced by the Bgl II fragment of HIV-1 ADA, YU-2 or HxB (ADA-Luc-FL, YU-2-Luc-FL and HxB-Luc-FL) are obtained from Dr. Susan Pontow (Washington University, St. Louis Mo.). Replication-competent luciferase reporter virus stocks are generated by transfection of plasmids into 293T cells using Superfect (Qiagen) or Mirus transfection reagents. Viral stocks are collected 48 hours following transfection and titered for luciferase production on U-87-CCR5 or CXCR4 cells. U87-CD4-CCR5 cells (10^4/well) are plated in 96-well cell culture plates and incubated overnight. Media is removed and replaced with 50 μl of fresh culture media (DMEM, 10% FCS) and 50 μl of compound diluted in culture medium. Cells are incubated with compound at 37° C. for 1 hour. The resultant supernatant is removed and replaced with 20 μl of media containing compound and infected with an equal volume of diluted or undiluted virus stock at 37° C. for 3-4 hours. The cells are washed once with DMEM, and 200 μl of media containing compound is added. The cultures are incubated for 3 days, the cells lysed in luciferase lysis buffer (Promega, Madison, Wis.) and transferred to Immulon plates (Dynex Technologies, Chantilly Va.). An equal volume of luciferase substrate (Promega, Madison Wis.) is added to lysates and the plates read immediately in a Wallac Luminometer. Fifty and ninety percent inhibitory concentrations are determined using GraphPad PRISM software.

[2] = Human immunodeficiency virus 1, U87/CD4/CCR5, read-out: HIV Replication (luciferase) IC50
[3] = Human immunodeficiency virus 1, U87/CD4/CCR5

Row | Compound | IC50 [1, 2] [nM] | also measured
1 | Cc1ncnc(C)c1C(=O)N1CCC(C)(N2CCC(N(C)c3ccc(Cl)c4cccnc34)CC2)CC1 (as salt: HCl) | – | melting point: 164 to 167 °C (dec.)
2 | Cc1ncnc(C)c1C(=O)N1CCC(C)(N2CCC(N(Cc3ccccc3)c3ccc(Br)cc3)CC2)CC1 (as salt: HCl) | – | melting point: 168 to 170 °C
3 | Cc1ncnc(C)c1C(=O)N1CCC(C)(N2CCC(N(c3ccccc3)c3ccc(C(F)(F)F)nc3)CC2)CC1 (as salt: HCl) [Compound 69] | – | melting point: 189 to 193 °C
4 | Cc1ncnc(C)c1C(=O)N1CCC(C)(N2CCC(N(Cc3ccccc3)c3ccncc3)CC2)CC1 (as salt: HCl) [Compound 108] | – | melting point: 182 to 189 °C
5 | CCCN(c1cccc2cccnc12)C1CCN(C2(C)CCN(C(=O)c3c(C)ncnc3C)CC2)CC1 (as salt: HCl) [Compound 110] | – | melting point: 181 °C (dec.)
6 | Cc1ncnc(C)c1C(=O)N1CCC(C)(N2CCC(N(Cc3ccccc3)C3CCCN(S(=O)(=O)C4CC4)C3)CC2)CC1 (stereo not shown) (as salt: HCl) [Compound 112] | – | melting point: 190 to 195 °C
7 | Cc1ncnc(C)c1C(=O)N1CCC(C)(N2CCC(N(Cc3ccccc3)c3cccc(C(=O)NCc4ccccc4)c3)CC2)CC1 [Compound 66] | 1 | –
8 | Cc1ncnc(C)c1C(=O)N1CCC(C)(N2CCC(N(Cc3ccccc3)c3cccc(C(=O)NCCO)c3)CC2)CC1 [Compound 67] | 6 | –
9 | Cc1ncnc(C)c1C(=O)N1CCC(C)(N2CCC(N(Cc3ccccc3)c3cccc(C(=O)NC4CC4)c3)CC2)CC1 [Compound 68] | 2 | –
10 | Cc1ncnc(C)c1C(=O)N1CCC(C)(N2CCC(N(c3ccccc3)c3ccc(C(F)(F)F)nc3)CC2)CC1 [Compound 69] | – | IC50 [1, 3]: 0.11 nM
11 | Cc1ncnc(C)c1C(=O)N1CCC(C)(N2CCC(N(c3ccccc3)c3ccc(OC(F)(F)F)cc3)CC2)CC1 [Compound 70] | 1 | –
12 | Cc1ncnc(C)c1C(=O)N1CCC(C)(N2CCC(N(c3ccccc3)c3ccc(Br)cn3)CC2)CC1 [Compound 71] | 0.6 | –
13 | Cc1ncnc(C)c1C(=O)N1CCC(C)(N2CCC(N(c3ccccc3)c3ccccc3)CC2)CC1 [Compound 72] | 0.3 | –
14 | Cc1ncnc(C)c1C(=O)N1CCC(C)(N2CCC(N(c3ccccc3)c3ccc(Cl)cc3)CC2)CC1 [Compound 73] | 0.3 | –
15 | Cc1ncnc(C)c1C(=O)N1CCC(C)(N2CCC(N(CC3CC3)c3ccccc3)CC2)CC1 [Compound 74] | 10 | –
16 | Cc1ncnc(C)c1C(=O)N1CCC(C)(N2CCC(N(CCc3ccccc3)c3ccccc3)CC2)CC1 [Compound 75] | 38 | –
17 | Cc1ncnc(C)c1C(=O)N1CCC(C)(N2CCC(N(c3ccccc3)c3ccc(C(F)(F)F)cn3)CC2)CC1 [Compound 76] | 0.2 | –
18 | Cc1ncnc(C)c1C(=O)N1CCC(C)(N2CCC(N(c3ccccc3)c3ccccn3)CC2)CC1 [Compound 77] | 7 | –
19 | Cc1ncnc(C)c1C(=O)N1CCC(C)(N2CCC(N(c3ccccc3)c3ccc(Cl)cn3)CC2)CC1 [Compound 78] | 1 | –
20 | Cc1ncnc(C)c1C(=O)N1CCC(C)(N2CCC(N(c3ccccc3)c3ccc(F)cc3)CC2)CC1 [Compound 79] | 1 | –
21 | Cc1ncnc(C)c1C(=O)N1CCC(C)(N2CCC(N(Cc3cccnc3)c3ccccc3)CC2)CC1 [Compound 80] | 2 | –
22 | Cc1cc(-c2cc[n+]([O-])cc2)cc(C)c1C(=O)N1CCC(C)(N2CCC(N(c3ccccc3)c3ccc(OC(F)(F)F)cc3)CC2)CC1 [Compound 81] | 3 | –
23 | Cc1cc(-c2cc[n+]([O-])cc2)cc(C)c1C(=O)N1CCC(C)(N2CCC(N(c3ccccc3)c3ccc(C(F)(F)F)nc3)CC2)CC1 [Compound 82] | 0.1 | –
24 | Cc1cc(-c2cc[n+]([O-])cc2)cc(C)c1C(=O)N1CCC(C)(N2CCC(N(c3ccccc3)c3ccc(C(F)(F)F)cn3)CC2)CC1 [Compound 83] | 0.05 | –
25 | Cc1cc(-c2cc[n+]([O-])cc2)cc(C)c1C(=O)N1CCC(C)(N2CCC(N(Cc3ccccn3)c3ccccc3)CC2)CC1 [Compound 84] | 10 | –

Row | Compound | IC50 [1, 2] [nM] | also measured
26 | Cc1ncnc(C)c1C(=O)N1CCC(C)(N2CCC(N(Cc3ccncc3)c3ccccc3)CC2)CC1 [Compound 86] | 75 | –
27 | Cc1ncnc(C)c1C(=O)N1CCC(C)(N2CCC(N(c3ccccc3)c3cccc(Br)c3)CC2)CC1 [Compound 87] | 0.1 | –
28 | Cc1ncnc(C)c1C(=O)N1CCC(C)(N2CCC(N(Cc3ccncc3)c3ccc(Br)cc3)CC2)CC1 [Compound 88] | 5 | –
29 | Cc1ncnc(C)c1C(=O)N1CCC(C)(N2CCC(N(Cc3ccccn3)c3ccc(Br)cc3)CC2)CC1 [Compound 89] | 0.8 | –
30 | Cc1ncnc(C)c1C(=O)N1CCC(C)(N2CCC(N(Cc3ccccn3)c3ccccc3)CC2)CC1 [Compound 90] | 3.4 | –
31 | COc1ccc(N(c2ccccc2)C2CCN(C3(C)CCN(C(=O)c4c(C)ncnc4C)CC3)CC2)cc1Cl [Compound 91] | 0.12 | –
32 | Cc1ncnc(C)c1C(=O)N1CCC(C)(N2CCC(N(c3ccccc3)c3cc(Cl)cc(Cl)c3)CC2)CC1 [Compound 92] | 4.1 | –
33 | Cc1ncnc(C)c1C(=O)N1CCC(C)(N2CCC(N(c3ccccc3)c3cccc(F)c3)CC2)CC1 [Compound 93] | 0.21 | –
34 | COc1cccc(N(c2ccccc2)C2CCN(C3(C)CCN(C(=O)c4c(C)ncnc4C)CC3)CC2)c1 [Compound 94] | 1 | –
35 | Cc1ncnc(C)c1C(=O)N1CCC(C)(N2CCC(N(c3ccccc3)c3ccc(Br)c(C(F)(F)F)c3)CC2)CC1 [Compound 95] | 2 | –
36 | Cc1cccc(N(c2ccccc2)C2CCN(C3(C)CCN(C(=O)c4c(C)ncnc4C)CC3)CC2)c1 [Compound 96] | 0.3 | –
37 | Cc1ncnc(C)c1C(=O)N1CCC(C)(N2CCC(N(Cc3cccnc3)c3ccc(Br)cc3)CC2)CC1 [Compound 97] | 0.3 | –
38 | Cc1ncnc(C)c1C(=O)N1CCC(C)(N2CCC(N(CC3CCCCC3)c3ccc(Br)cc3)CC2)CC1 [Compound 98] | 2 | –
39 | CCOc1ccc(N(c2ccccc2)C2CCN(C3(C)CCN(C(=O)c4c(C)ncnc4C)CC3)CC2)cc1 [Compound 99] | 0.3 | –
40 | CCc1ccc(N(c2ccccc2)C2CCN(C3(C)CCN(C(=O)c4c(C)ncnc4C)CC3)CC2)cc1 [Compound 100] | 0.1 | –
41 | Cc1ncnc(C)c1C(=O)N1CCC(C)(N2CCC(N(c3ccccc3)c3cc(F)cc(F)c3)CC2)CC1 [Compound 101] | 0.1 | –
42 | COCCN(c1ccc(Br)cc1)C1CCN(C2(C)CCN(C(=O)c3c(C)ncnc3C)CC2)CC1 [Compound 103] | 2 | –
43 | Cc1ncnc(C)c1C(=O)N1CCC(C)(N2CCC(N(c3ccccc3)c3ccccc3F)CC2)CC1 [Compound 104] | 3 | –
44 | Cc1ncnc(C)c1C(=O)N1CCC(C)(N2CCC(N(c3ccccc3)c3ccc(Oc4ccccc4)cc3)CC2)CC1 [Compound 105] | 5 | –
45 | Cc1ncnc(C)c1C(=O)N1CCC(C)(N2CCC(N(CC3CCCCC3)c3ccccc3)CC2)CC1 [Compound 106] | 1 | –
46 | Cc1ncnc(C)c1C(=O)N1CCC(C)(N2CCC(N(c3ccccc3)c3ccc(I)cc3)CC2)CC1 [Compound 107] | 1 | –
47 | Cc1ncnc(C)c1C(=O)N1CCC(C)(N2CCC(N(Cc3ccccc3)c3ccncc3)CC2)CC1 [Compound 108] | – | IC50 [1, 3]: 0.8 nM
48 | CCCN(c1cccc2cccnc12)C1CCN(C2(C)CCN(C(=O)c3c(C)ncnc3C)CC2)CC1 [Compound 110] | – | IC50 [1, 3]: 23 nM
49 | Cc1ncnc(C)c1C(=O)N1CCC(C)(N2CCC(N(Cc3ccccc3)C3CCCN(S(=O)(=O)C4CC4)C3)CC2)CC1 (stereo not shown) [Compound 112] | – | IC50 [1, 3]: 30 nM
